Converted amounts (≈) assume the structure as drawn. The source made the active and inactive calls. The rule behind the calls is not given here.
Key:
CEM-SS = test: Cytotoxicity against human CEM-SS cells; format: cell-based
[1] = system: Human immunodeficiency virus 1; test: Antiviral activity against HIV1; format: functional, organism-based

EC50 [1] [µg/mL]	SMILES	IC50 (CEM-SS) [µg/mL]	Activity [1]
	CC(C)=CCc1c(O)c(CC=C(C)C)c2oc3c(O)cccc3c(=O)c2c1O [8-DEOXYGARTANIN]	4.9 (≈ 12.9 µM)	inactive
	CC(C)=CCc1c(O)cc2oc(-c3ccc(O)cc3O)c(CC=C(C)C)c(=O)c2c1O [CUDRAFLAVONE C]	5 (≈ 11.8 µM)	inactive
	CC(C)=CCc1c(-c2ccc(O)cc2O)oc2cc3c(c(O)c2c1=O)CCC(C)(C)O3 [DIHYDROCUDRAFLAVONE B]	12 (≈ 28.4 µM)	inactive
	CC(C)=CCc1c(O)c(CC=C(C)C)c2oc3c(O)ccc(O)c3c(=O)c2c1O [GARTANIN]	5.3 (≈ 13.4 µM)	inactive
7.5 (≈ 17.8 µM)	CC(C)=CCc1c(O)cc2oc3c(c(=O)c2c1O)C(C=C(C)C)Oc1cc(O)ccc1-3 (centres undefined) [ISOCYCLOMULBERRIN]	17 (≈ 40.4 µM)	
1 (≈ 2.52 µM)	C=CC(C)(C)c1c(O)c(CC=C(C)C)c2oc3cc(O)c(O)cc3c(=O)c2c1O [MACLURAXANTHONE B]	2.2 (≈ 5.55 µM)	
1.3 (≈ 3.28 µM)	C=CC(C)(C)c1c(O)c(CC=C(C)C)c2oc3c(O)c(O)ccc3c(=O)c2c1O [MACLURAXANTHONE C]	3.7 (≈ 9.33 µM)	

From ChEMBL document CHEMBL1155627, “HIV-Inhibitory prenylated xanthones and flavones from Maclura tinctoria” (J Nat Prod, 2000)
